# According to PMC10208956, “Microbial peptides activate tumour-infiltrating lymphocytes in glioblastoma” (Nature, 2023):
# Read-outs that look alike come from different tables or passages of the source.
# Experiments:
# [1] = test system: TCC75; assay: Cytokine/chemokine secretion of TCC75; assay type: cell-based, human; parameters: IL-1α / IL-1β / IL-2 / IL-3 / IL-4 / IL-5 / IL-6 / IL-7 / IL-10 / IL-13 / IL-15 / IL-17A / IL-33 / TNF-α: unit not given here; conditions: TCC75, sheet e
# [2] = test system: sorted CD4+ PE and FITC TCRVβ+ TILs; assay: Proliferation of TCRBV-sorted CD4+ TILs (without TCRBV6.1 and TCRBV6.2); assay type: cell-based, human; conditions: sheet 6b
# [3] = test system: TCC88; conditions: for Proliferation (SI), peptide dose titration: sheet f
substance,measurement,setting,value
Ac-QPVEFNHAIHYVN-NH2 [SIN3A*],CCL2/MCP-1,[1],15.01
same,CCL3/MIP-1α,[1],1946.52
same,CCL4/MIP-1β,[1],6778.88
same,CCL11/Eotaxin,[1],4.69
same,CCL19/MIP-3β,[1],3.33
same,CCL20/MIP-3α,[1],6.39
same,CD40 Ligand,[1],608.52
same,CXCL1/GROα,[1],9.62
same,CXCL2/GROβ,[1],35.12
same,CXCL8/IL-8,[1],0
same,CXCL10/IP-10,[1],40.51
same,Flt-3 Ligand,[1],43.9
same,Fractalkine,[1],194.12
same,GM-CSF,[1],3130.41
same,Granzyme B,[1],1085.42
same,IFN-α,[1],4.79
same,IFN-γ,[1],479.21
same,IL-1rα,[1],0
same,IL-1α,[1],6.12
same,IL-1β,[1],7.45
same,IL-2,[1],555.39
same,IL-3,[1],138.37
same,IL-4,[1],73.09
same,IL-5,[1],13.91
same,IL-6,[1],139.59
same,IL-7,[1],1.11
same,IL-10,[1],887.25
same,IL-12p70,[1],22.92
same,IL-13,[1],233.15
same,IL-15,[1],1.05
same,IL-17A,[1],0.99
same,IL-17E/IL-25,[1],3.22
same,IL-33,[1],3.72
same,RANTES,[1],1598.25
same,TNF-α,[1],5169.38
same,Proliferation (SI) of sorted CD4+ TILs,[2]; replicate 1,9.2018
same,Proliferation (SI) of sorted CD4+ TILs,[2]; replicate 2,10.7366
same,Proliferation (SI) of sorted CD4+ TILs,[2]; replicate 3,6.162
same,SI: TCC88,[3]; 3 h,20.6
same,"Proliferation (SI), peptide dose titration","[3]; peptide concentration 10-1 (unit not given), replicate 1",42.2997
same,"Proliferation (SI), peptide dose titration","[3]; peptide concentration 10-1 (unit not given), replicate 2",45.1904
same,"Proliferation (SI), peptide dose titration","[3]; peptide concentration 10-1 (unit not given), replicate 3",49.4521
same,"Proliferation (SI), peptide dose titration","[3]; peptide concentration 10-2 (unit not given), replicate 1",1.135
same,"Proliferation (SI), peptide dose titration","[3]; peptide concentration 10-2 (unit not given), replicate 2",0.9523
same,"Proliferation (SI), peptide dose titration","[3]; peptide concentration 10-2 (unit not given), replicate 3",1.168
same,"Proliferation (SI), peptide dose titration","[3]; peptide concentration 10-3 (unit not given), replicate 1",0.8172
same,"Proliferation (SI), peptide dose titration","[3]; peptide concentration 10-3 (unit not given), replicate 2",0.7497
same,"Proliferation (SI), peptide dose titration","[3]; peptide concentration 10-3 (unit not given), replicate 3",0.8105
same,"Proliferation (SI), peptide dose titration","[3]; peptide concentration printed 10, fifth line r7 (unit not printed), replicate 1",28.2921
same,"Proliferation (SI), peptide dose titration","[3]; peptide concentration printed 10, fifth line r7 (unit not printed), replicate 2",32.0878
same,"Proliferation (SI), peptide dose titration","[3]; peptide concentration printed 10, fifth line r7 (unit not printed), replicate 3",32.0203
same,"Proliferation (SI), peptide dose titration","[3]; peptide concentration printed 10, fourth line r6 (unit not printed), replicate 1",44.2381
same,"Proliferation (SI), peptide dose titration","[3]; peptide concentration printed 10, fourth line r6 (unit not printed), replicate 2",56.0371
same,"Proliferation (SI), peptide dose titration","[3]; peptide concentration printed 10, fourth line r6 (unit not printed), replicate 3",57.6243
